This note sets out measurements from patent US12030878B2 (BRISTOL-MYERS SQUIBB COMPANY, priority 2017, dated 2024).

What all share (format): cell-based
For one assay, the target named is T1, human TLR8 (Homo sapiens, UniProt Q9NR97).
T1 construct: host or cells: HEK-Blue cells
T1 sequence (Q9NR97 27-1041): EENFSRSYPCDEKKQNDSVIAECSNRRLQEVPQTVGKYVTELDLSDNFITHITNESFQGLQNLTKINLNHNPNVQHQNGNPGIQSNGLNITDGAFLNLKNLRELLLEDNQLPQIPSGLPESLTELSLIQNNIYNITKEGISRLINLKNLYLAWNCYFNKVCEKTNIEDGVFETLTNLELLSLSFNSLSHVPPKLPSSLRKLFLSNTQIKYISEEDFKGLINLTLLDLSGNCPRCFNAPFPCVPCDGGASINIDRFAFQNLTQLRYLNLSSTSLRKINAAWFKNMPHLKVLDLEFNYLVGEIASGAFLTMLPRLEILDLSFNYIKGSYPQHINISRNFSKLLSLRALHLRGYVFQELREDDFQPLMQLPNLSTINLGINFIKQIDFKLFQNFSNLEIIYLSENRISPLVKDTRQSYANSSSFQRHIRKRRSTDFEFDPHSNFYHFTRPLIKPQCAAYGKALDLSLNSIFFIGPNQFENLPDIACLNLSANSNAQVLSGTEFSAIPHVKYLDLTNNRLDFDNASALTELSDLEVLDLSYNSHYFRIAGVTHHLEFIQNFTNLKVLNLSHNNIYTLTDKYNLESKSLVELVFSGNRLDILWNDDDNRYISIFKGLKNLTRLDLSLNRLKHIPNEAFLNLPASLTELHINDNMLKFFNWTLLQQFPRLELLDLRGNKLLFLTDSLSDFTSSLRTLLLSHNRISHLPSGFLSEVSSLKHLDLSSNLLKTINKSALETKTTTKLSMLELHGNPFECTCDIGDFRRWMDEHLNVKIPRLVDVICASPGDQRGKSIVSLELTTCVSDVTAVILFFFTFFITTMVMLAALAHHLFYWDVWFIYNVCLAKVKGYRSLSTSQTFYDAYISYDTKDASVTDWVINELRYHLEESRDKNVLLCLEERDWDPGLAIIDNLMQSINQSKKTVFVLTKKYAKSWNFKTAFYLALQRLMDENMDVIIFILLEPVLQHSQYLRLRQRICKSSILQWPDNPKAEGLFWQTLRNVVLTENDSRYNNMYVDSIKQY
As to the kind of experiment: TLR8 inhibition reporter assay (HEK-Blue SEAP). The settings on record: HEK-Blue cells overexpressing human TLR8, stimulated with R848 15.9 μM, 22 hour incubation. An outline of the steps: (§1)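 HEK-Blue cells with NF-κB/AP-1-driven SEAP reporter; compounds 0.05 nM-50 μM, 30 min pre-treatment at room temperature, then agonist: gardiquimod 7.5 μM (TLR7), R848 15.9 μM (TLR8) or ODN2006 5 nM (TLR9). SEAP read after 22 h at 37 °C; percent inhibition versus agonist-plus-DMSO and reference-inhibitor wells.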
For orientation: A reporter such as luciferase makes a cellular process visible.

The target of a further assay is T2, human TLR7 (Homo sapiens, UniProt Q9NYK1).
T2 construct: host or cells: HEK-Blue cells
T2 sequence (Q9NYK1 27-1049): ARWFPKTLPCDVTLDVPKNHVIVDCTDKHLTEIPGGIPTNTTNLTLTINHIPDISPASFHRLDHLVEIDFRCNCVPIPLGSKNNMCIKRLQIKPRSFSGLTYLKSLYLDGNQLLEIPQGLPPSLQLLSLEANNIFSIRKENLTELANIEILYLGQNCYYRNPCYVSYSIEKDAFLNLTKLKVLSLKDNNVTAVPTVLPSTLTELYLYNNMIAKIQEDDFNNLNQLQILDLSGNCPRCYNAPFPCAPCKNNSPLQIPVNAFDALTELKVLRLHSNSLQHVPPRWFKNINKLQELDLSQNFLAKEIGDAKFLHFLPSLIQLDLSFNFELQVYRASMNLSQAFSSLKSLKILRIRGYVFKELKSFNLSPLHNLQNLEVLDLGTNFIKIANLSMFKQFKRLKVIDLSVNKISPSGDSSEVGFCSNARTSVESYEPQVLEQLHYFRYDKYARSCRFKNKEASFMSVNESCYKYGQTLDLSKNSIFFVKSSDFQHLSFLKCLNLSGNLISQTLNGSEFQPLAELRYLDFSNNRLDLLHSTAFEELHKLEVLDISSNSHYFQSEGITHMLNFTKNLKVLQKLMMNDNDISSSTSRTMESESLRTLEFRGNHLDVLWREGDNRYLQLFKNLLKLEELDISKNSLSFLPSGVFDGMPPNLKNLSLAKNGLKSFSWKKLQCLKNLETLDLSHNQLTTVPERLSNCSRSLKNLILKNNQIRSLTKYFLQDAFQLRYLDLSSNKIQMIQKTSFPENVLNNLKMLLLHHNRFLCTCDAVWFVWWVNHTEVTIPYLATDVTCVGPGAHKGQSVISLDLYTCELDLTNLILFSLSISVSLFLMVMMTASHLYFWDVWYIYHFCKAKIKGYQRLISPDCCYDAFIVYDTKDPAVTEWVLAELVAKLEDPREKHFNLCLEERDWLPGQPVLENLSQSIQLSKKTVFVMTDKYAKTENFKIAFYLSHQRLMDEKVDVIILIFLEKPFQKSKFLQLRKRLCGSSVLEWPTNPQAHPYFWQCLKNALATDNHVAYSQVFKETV
As to the kind of experiment: TLR7 inhibition reporter assay (HEK-Blue SEAP). The settings on record: HEK-Blue cells overexpressing human TLR7, stimulated with gardiquimod 7.5 μM, 22 hour incubation. An outline of the steps:
as §1

The next assay has as its target T3, human TLR9 (Homo sapiens, UniProt Q9NR96).
T3 construct: host or cells: HEK-Blue cells
T3 sequence (Q9NR96 26-1032): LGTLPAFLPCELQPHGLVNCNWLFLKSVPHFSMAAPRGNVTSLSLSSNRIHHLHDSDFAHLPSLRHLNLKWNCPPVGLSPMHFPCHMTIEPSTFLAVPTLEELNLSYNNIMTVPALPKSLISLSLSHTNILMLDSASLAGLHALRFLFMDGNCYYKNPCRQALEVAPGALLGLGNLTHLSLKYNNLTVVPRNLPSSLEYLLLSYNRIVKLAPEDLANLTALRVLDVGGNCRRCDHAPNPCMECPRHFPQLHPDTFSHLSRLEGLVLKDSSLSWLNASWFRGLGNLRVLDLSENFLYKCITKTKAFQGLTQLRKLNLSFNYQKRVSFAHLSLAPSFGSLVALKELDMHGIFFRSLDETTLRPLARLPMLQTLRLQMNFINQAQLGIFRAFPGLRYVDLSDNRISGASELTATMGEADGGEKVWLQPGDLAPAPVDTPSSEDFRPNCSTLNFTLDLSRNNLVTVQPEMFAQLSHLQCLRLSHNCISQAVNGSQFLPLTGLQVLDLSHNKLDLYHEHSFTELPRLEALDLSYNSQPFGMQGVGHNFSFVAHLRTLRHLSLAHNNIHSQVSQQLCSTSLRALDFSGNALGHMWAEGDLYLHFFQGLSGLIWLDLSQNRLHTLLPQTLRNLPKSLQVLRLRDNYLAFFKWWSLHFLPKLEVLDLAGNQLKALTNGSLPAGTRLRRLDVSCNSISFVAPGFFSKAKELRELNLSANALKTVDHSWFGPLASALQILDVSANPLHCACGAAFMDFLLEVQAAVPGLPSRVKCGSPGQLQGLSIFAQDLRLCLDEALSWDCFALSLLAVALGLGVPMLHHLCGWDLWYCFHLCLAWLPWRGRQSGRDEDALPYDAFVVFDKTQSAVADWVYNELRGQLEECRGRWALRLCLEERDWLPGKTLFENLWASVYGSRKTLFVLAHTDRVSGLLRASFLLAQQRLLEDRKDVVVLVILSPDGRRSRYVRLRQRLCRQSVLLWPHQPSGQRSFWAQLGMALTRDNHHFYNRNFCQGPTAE
Description: TLR9 inhibition reporter assay (HEK-Blue SEAP). The settings on record: HEK-Blue cells overexpressing human TLR9, stimulated with ODN2006 5 nM, 22 hour incubation. In a few lines:
as §1

The term IC50 denotes the concentration that gives 50% inhibition. In the case of `Cc1cc(-c2[nH]c3ccc(OC4CCC(OC5CCNCC5)CC4)cc3c2C(C)C)ccn1` (stereo not drawn) [Example 185, 3-isopropyl-2-(2-methylpyridin-4-yl)-5-((4-(piperidin-4-yloxy)cyclohexyl)oxy)-1H-indole], the IC50 was determined as 22.6 nM against human TLR8, 50.2 nM at human TLR7 and 2990 nM on human TLR9.

Consider `Cc1cc(-c2[nH]c3ccc(OC4CCN(C(C)C)CC4)cc3c2C(C)C)ccn1` [Example 186, 3-isopropyl-5-((1-isopropylpiperidin-4-yl)oxy)-2-(2-methylpyridin-4-yl)-1H-indole], for which the half-inhibitory concentration (IC50) at human TLR8 turned out to be 3.1 nM; against human TLR7, 70.7 nM; against human TLR9 it was 2670 nM.

For `Cc1cc(-c2[nH]c3ccc(OCC4CCN(C)CC4)cc3c2C(C)C)ccn1` [Example 188, 3-isopropyl-5-((1-methylpiperidin-4-yl)methoxy)-2-(2-methylpyridin-4-yl)-1H-indole], the values for the IC50 at human TLR8, against human TLR7 and at human TLR9 were 2.1 nM, 44.7 nM and 1540 nM, respectively.

`CCc1c(-c2ccnc(C)c2)[nH]c2ccc(OC3CCN(C)CC3)cc12` [Example 189, 3-ethyl-5-((1-methylpiperidin-4-yl)oxy)-2-(2-methylpyridin-4-yl)-1H-indole]: the IC50 was determined as 6.5 nM against human TLR8, 166 nM against human TLR7 and 1080 nM against human TLR9.

On to `CCc1c(-c2ccnc(C)c2)[nH]c2ccc(OC3CCN(C(C)C)C3)cc12` (stereo not drawn) [Example 190, 3-ethyl-5-((1-isopropylpyrrolidin-3-yl)oxy)-2-(2-methylpyridin-4-yl)-1H-indole], for which the IC50 is 118 nM at human TLR8, 954 nM against human TLR7 and 1220 nM on human TLR9.

With `Cc1cc(-c2[nH]c3ccc(OCC4CCN(C(C)C)CC4)cc3c2C(C)C)ccn1` [Example 191, 3-isopropyl-5-((1-isopropylpiperidin-4-yl)methoxy)-2-(2-methylpyridin-4-yl)-1H-indole], the results for the concentration for half-maximal inhibition (IC50) at human TLR8, at human TLR7 and on human TLR9 were 5.8 nM, 84.2 nM and 2810 nM, respectively.

Turning to `CCc1c(-c2ccnc(C)c2)[nH]c2ccc(OCCN3CCCC3)cc12` [Example 192, 3-ethyl-2-(2-methylpyridin-4-yl)-5-(2-(pyrrolidin-1-yl)ethoxy)-H-indole], the half-maximal inhibitory concentration (IC50) at human TLR8 turned out to be 50.8 nM; on human TLR7, 1030 nM; against human TLR9, 774 nM.

On to `Cc1cc(-c2[nH]c3ccc(O[C@@H]4CCN(C)C4)cc3c2C(C)C)ccn1` [Example 193, (R)-3-isopropyl-2-(2-methylpyridin-4-yl)-5-((1-methylpyrrolidin-3-yl)oxy)-1H-indole], for which the values for the half-maximal inhibitory concentration (IC50) on human TLR8, on human TLR7 and against human TLR9 were 6.4 nM, 15.1 nM and 884 nM, respectively.

As to `COCCN1CCC(COc2ccc3[nH]c(-c4ccnc(C)c4)c(C(C)C)c3c2)C1` (stereo not drawn) [Example 194, 3-isopropyl-5-((1-(2-methoxyethyl)pyrrolidin-3-yl)methoxy)-2-(2-methylpyridin-4-yl)-1H-indole], the half-maximal inhibitory concentration (IC50) against human TLR8 was found to be 13.7 nM; at human TLR7 it was 113 nM; against human TLR9, 1460 nM.

On to `Cc1cc(-c2[nH]c3ccc(OC4CCN(C5CCN(C(C)C)CC5)CC4)cc3c2C(C)C)ccn1` [Example 195, 3-isopropyl-5-((1′-isopropyl-[1,4′-bipiperidin]-4-yl)oxy)-2-(2-methylpyridin-4-yl)-1H-indole], for which the figures for the 50% inhibitory concentration (IC50) on human TLR8, against human TLR7 and on human TLR9 were 0.6 nM, 6 nM and 58 nM, respectively.

For the molecule `Cc1cc(-c2[nH]c3ccc(OC4CCN(C(=O)CN(C)C)CC4)cc3c2C(C)C)ccn1` [Example 196, 2-(dimethylamino)-1-(4-((3-isopropyl-2-(2-methylpyridin-4-yl)-1H-indol-5-yl)oxy)piperidin-1-yl)ethan-1-one], the IC50 against human TLR8 is 11.8 nM; against human TLR7, 9.9 nM; at human TLR9 it was 1420 nM.

On to `Cc1cc(-c2[nH]c3ccc(OC4CCN(CC(=O)O)CC4)cc3c2C(C)C)cc(C)n1` [Example 197, 2-(4-((2-(2,6-dimethylpyridin-4-yl)-3-isopropyl-1H-indol-5-yl)oxy)piperidin-1-yl)acetic acid], for which the half-inhibitory concentration (IC50) on human TLR8 amounted to 462 nM; against human TLR7 it was 679 nM; at human TLR9 it was 25200 nM.
